Assay results reported in PubChem BioAssay (NCI).
“And” between values parts separate entries of the source, which are not always exact repeats. Identical values can stand only once.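 Following 48 hours of exposure in 96-well plates, responses at five concentrations were used to interpolate endpoints linearly. GI50 is the concentration that inhibits growth by half. TGI: total growth inhibition.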

Legend:
Experiment in all cases: NCI tumour cell line growth inhibition, 48 h
SW-620 colon = system: SW-620 colon
SK-OV-3 ovarian = system: SK-OV-3 ovarian
SF-539 CNS = system: SF-539 CNS
LOX IMVI melanoma = system: LOX IMVI melanoma
ACHN renal = system: ACHN renal
HOP-92 NSCLC = system: HOP-92 NSCLC
MALME-3M melanoma = system: MALME-3M melanoma
UO-31 renal = system: UO-31 renal
UACC-62 melanoma = system: UACC-62 melanoma
SK-MEL-2 melanoma = system: SK-MEL-2 melanoma

Compound | GI50 (SW-620 colon) [µM] | TGI (SW-620 colon) [µM] | GI50 (SK-OV-3 ovarian) [µM] | TGI (SK-OV-3 ovarian) | GI50 (SF-539 CNS) [µM] | TGI (SF-539 CNS) | GI50 (LOX IMVI melanoma) [nM] | TGI (LOX IMVI melanoma) [µM] | GI50 (ACHN renal) [nM] | TGI (ACHN renal) | GI50 (HOP-92 NSCLC) [µM] | TGI (HOP-92 NSCLC) | GI50 (MALME-3M melanoma) [µM] | TGI (MALME-3M melanoma) [µM] | GI50 (UO-31 renal) [µM] | TGI (UO-31 renal) | GI50 (UACC-62 melanoma) [µM] | TGI (UACC-62 melanoma) | GI50 (SK-MEL-2 melanoma) [µM] | TGI (SK-MEL-2 melanoma) [µM]
NC(=O)c1c(NC(=O)c2cccc(C(F)(F)F)c2)sc2c1CCC(=O)C2 | 0.234 | 1.62 | 2.8 | 8.39 µM | 0.328 | 1.23 µM | 356 | 2.8 | 322 | 1.05 µM | 0.985 | 3.47 µM | 0.869 | 3.73 | 0.291 | 1.19 µM | 0.368 | 1.66 µM | 2.06 | 6.25
CCC1(Cl)C(=O)NC(=O)N(C2CC(O)C(CO)O2)C1N=[N+]=[N-] (stereo unspecified) | – | > 100 | – | > 100 µM | – | > 100 µM | – | > 100 | – | > 100 µM | – | > 100 µM | – | > 100 | – | > 100 µM | – | > 100 µM | – | > 100
COC12C=C/C(=C(/C(=O)OCc3csc(SC)n3)C(=O)CCCCCCCCC3(OC)C=C/C(=C(/C(=O)OCc4cnc(SC)s4)C(=O)CCCCCCCC1)O3)O2 (stereo unspecified) | 3.66 | > 100 | 9.06 | > 100 µM | 4.03 | 19.8 µM | 1200 | 3.53 | 2510 | 28.9 µM | 12.3 | 32.3 µM | 3.84 | 39.7 | 4.96 | > 100 µM | 3.51 | 35.2 µM | 3.69 | 16.6
Fc1ccc(-c2cc(-c3cn[nH]c3-c3ccccn3)ccn2)cc1 | > 25 | > 25 | > 25 | > 25 µM | > 25 | > 25 µM | > 25000 | > 25 | > 25000 | > 25 µM | 24.6 | > 25 µM | > 25 | > 25 | > 25 | > 25 µM | > 25 | > 25 µM | > 25 | > 25
C/C(N=NC(=S)N1CCCCCC1)=C1\C=CC=CN1O | – | > 100 | – | 98.2 µM | – | 48.2 µM | – | > 56.3 | – | 67.6 µM | – | 72.4 µM | – | 36.4 | – | > 100 µM | – | 24.6 µM | – | 18.8
C=C[C@@]1(C)CC(=O)[C@]2(O)[C@@]3(C)[C@@H](O)CCC(C)(C)[C@@H]3[C@H](O)[C@@H](OC(C)=O)[C@@]2(C)O1 | – | > 100 | – | > 100 µM | – | > 100 µM | – | > 100 | – | > 100 µM | – | > 100 µM | – | > 100 | – | > 100 µM | – | > 100 µM | – | > 100
COC(=O)C1=C(C(=O)OC)C(C(=O)OC)C(C(=O)OC)C(C(=O)OC)(C(=O)OC)C(C(=O)OC)=C1C(=O)OC (stereo unspecified) | – | 16.8 | – | 55.6 µM | – | 36.7 µM | – | 28.2 | – | 28.4 µM | – | 18.4 µM | – | 15.7 | – | 30.7 µM | – | 31 µM | – | 35.1
O=C(O)C(Cc1c[nH]c2ccccc12)N1C(=O)c2ccccc2C1=O (stereo unspecified) | – | > 100 | – | > 100 µM | – | > 100 µM | – | > 100 | – | > 100 µM | – | > 100 µM | – | > 100 | – | > 100 µM | – | > 100 µM | – | > 100
C=C1C(=O)C23CC1CCC2C12CO[C@@]3(O)[C@@H](O)C1C(C)(C)C=CC2=O (stereo partly specified) | – | 10.2 | 26.1 | 13.7 µM and 54.5 µM | 4.43 | 1.8 µM and 13.4 µM | – | 11.5 | 3360 | 1.42 µM and 11.5 µM | 2.92 | 1.46 µM and 5.41 µM | 6.11 | – | 8.37 | 4.2 µM and 20.4 µM | 4.89 | 2.37 µM and 19.3 µM | – | 1.99
